Source: patent US20050086710A1, “Method for generating recombinant human platelets for identifying therapeutic target proteins” (priority 2002, published 2005)

How the values were obtained:
[1] = tested on: freshly isolated platelets; assay: ELISA, release of PDGF, freshly isolated platelets; type: cell-based, human
Description: (§1) Freshly drawn blood from human volunteers was transferred into a Falcon tube and spun down for 20 min. at 1080 rpm at 20° C. The supernatant yielded the PRP (platelet-rich-plasma) and was transferred to a new tube and diluted 1:4 with wash-buffer (1×PBS (w/o CA^2+ Mg^+) with 0.1% sodium azide, pH 7.2+/−0.2, filtered through a 0.2 μm filter prior to use and stored at 4° C.). The mixture was spun down for 10 min. at 2100 rpm at 20° C. The pellet was resuspended in staining buffer (1×PBS (w/o CA^2+ Mg^+) with 0.1% sodium azide and 2% fetal bovine serum) in a volume of 40 μl.
(§2) ELISA Assays for β-thromboglobulin (Asserachrom β-TG, Roche Diagnostics, Mannheim, Germany) and platelet-derived growth factor (PDGF; PDGF-AB Immunoassay, Qiagen, Hilden, Germany) were performed according to the manufacturers' instructions. By using these assays, the thrombin dependent release of both mediators from platelets was assessed.

[2] = tested on: stem cell-derived platelets after infection with Ad-GFP; assay: ELISA, release of PDGF, platelets after infection with Ad-GFP; type: cell-based; details: thrombin vs basal
Source text: (§3) Modified (E1/E3-deficient) flag-tagged adenoviruses for novel transgenes were generated that for expressing a transgene and green fluorescence protein (GFP) under control of two independent CMV promoters in a bi-cistronic system (He T C, Zhou S, da Costa L T, Yu J, Kinzler K W, Vogelstein B. A simplified system for generating modified adenoviruses. Proc Natl Acad Sci USA. 1998; 95:2509-14, purchased from Q Biogene, Heidelberg, Germany). As a control, Ad-GFP without further transgene was used. Large virus stocks were prepared and purified by centrifugation via cesium chloride density gradients. Adenoviral titers were determined using plaque titration and GFP expression titration in […] cells. • 1) Megakaryocytes were harvested at day 8-11 after isolation using a wide sterile single-use pipette and spun down in a 15 mL Falcon-tube at 1650 rpm for 8 min. • 2) The supernatant was discarded and the pellet resuspended in Opimem (at 4×10^5 cells/300 μL). • 3) Adenovirus was added to each well of a 24 well-plate for infection (multiplicity of infection (MOI) of 400 plaque forming units per cell). • 4) Cells were added and mixed by shaking, incubated for 30 min at 37° C. at 5% CO2, then • 5) spun down at 1000 rpm, 20° C. for 10 min. […]

[3] = tested on: stem cell-derived platelets; assay: ELISA, thrombin dependent release of β-thromboglobulin, stem cell-derived platelets; type: cell-based
Description: as §2

[4] = tested on: stem cell-derived platelets after infection with Ad-GFP; assay: ELISA, release of β-thromboglobulin, platelets after infection with Ad-GFP; type: cell-based; details: thrombin vs basal
Source text: as §3

[5] = tested on: freshly isolated platelets; assay: ELISA, release of β-thromboglobulin, freshly isolated platelets; type: cell-based, human; details: thrombin, amount not stated (basal 59±6)
Description: as §1, §2

[6] = tested on: stem cell-derived platelets; assay: ELISA, thrombin dependent release of PDGF, stem cell-derived platelets; type: cell-based
Description: as §2

[7] = tested on: freshly isolated human platelets; assay: FACS measurement of platelet surface markers after activation, freshly isolated platelets; type: cell-based; set-up: CD 41 (FACS) / CD 61 (FACS) / CD42b (FACS) / CD62P (FACS): unit not given here; details: TRAP 25 μM or ADP 5 or 20 μM, 10 min
Description: Freshly drawn blood from human volunteers was transferred into a Falcon tube and spun down for 20 min. at 1080 rpm at 20° C. […] The mixture was spun down for 10 min. at 2100 rpm at 20° C. The pellet was resuspended in staining buffer (1×PBS (w/o CA^2+ Mg^+) with 0.1% sodium azide and 2% fetal bovine serum) in a volume of 40 μl. […] Then, the mixture was spun down for 5 min. at 1800 rpm (in a tabletop centrifuge). The supernatant was discarded, 300-400 μL staining-buffer were added. FACS measurements were done immediately. For the following studies, antibodies against the following antigens were used: [table] The antibodies were coupled to the following fluorescence systems, where appropriate (either directly or via secondary antibodies) and measured by fluorescence-activated cell sorting (FACS): […] Platelets which co-expressed the transgene GFP were gated for this marker by studying FITC fluorescence, and the same measurements were then exclusively related to this gate.

[8] = tested on: megakaryocyte-derived platelets; assay: FACS measurement of platelet surface markers after activation, megakaryocyte-derived platelets; type: cell-based, human; set-up: unit not given here; details: TRAP 25 μM or ADP 5 or 20 μM, 10 min
Description: Then, the mixture was spun down for 5 min. at 1800 rpm (in a tabletop centrifuge). The supernatant was discarded, 300-400 μL staining-buffer were added. FACS measurements were done immediately. For the following studies, antibodies against the following antigens were used: [table] The antibodies were coupled to the following fluorescence systems, where appropriate (either directly or via secondary antibodies) and measured by fluorescence-activated cell sorting (FACS): [table] Platelets which co-expressed the transgene GFP were gated for this marker by studying FITC fluorescence, and the same measurements were then exclusively related to this gate.

[9] = tested on: modified platelets expressing GFP; assay: FACS measurement of platelet surface markers after activation, modified platelets expressing GFP; type: cell-based, human; details: gated for GFP, TRAP 25 μM or ADP 5 or 20 μM
Source text: Modified (E1/E3-deficient) flag-tagged adenoviruses for novel transgenes were generated that for expressing a transgene and green fluorescence protein (GFP) under control of two independent CMV promoters in a bi-cistronic system (He T C, Zhou S, da Costa L T, Yu J, Kinzler K W, Vogelstein B. A simplified system for generating modified adenoviruses. Proc Natl Acad Sci USA. 1998; 95:2509-14, purchased from Q Biogene, Heidelberg, Germany). As a control, Ad-GFP without further transgene was used. Large virus stocks were prepared and purified by centrifugation via cesium chloride density gradients. Adenoviral titers were determined using plaque titration and GFP expression titration in […] cells. • 1) Megakaryocytes were harvested at day 8-11 after isolation using a wide sterile single-use pipette and spun down in a 15 mL Falcon-tube at 1650 rpm for 8 min. • 2) The supernatant was discarded and the pellet resuspended in Opimem (at 4×10^5 cells/300 μL). • 3) Adenovirus was added to each well of a 24 well-plate for infection (multiplicity of infection (MOI) of 400 plaque forming units per cell). • 4) Cells were added and mixed by shaking, incubated for 30 min at 37° C. at 5% CO2, then • 5) spun down at 1000 rpm, 20° C. for 10 min.
• 1) Platelets were harvested by centrifugation at 1800 rpm for 1¼ min at 20° C.; the supernatant was diluted 1:1 with platelet wash buffer (1×PBS (w/o CA^2+ Mg^+) with 0.1% sodium azide (pH 7.2+/−0.2)). • 2) They were filtered through a 0.2 μm filter prior to use, stored at 4° C. and spun down at 1800 rpm for 5 min. • 3) The supernatant was discarded. ≈1 mL was left in the tube and washed again with staining buffer (1×PBS (w/o CA^2+Mg^+) with 0.1% sodium azide and 2% fetal bovine serum (FBS) and stored at 4° C. • 4) The supernatant was completely discarded. • 5) The pellet was resuspended in platelet-staining-buffer ([…]). • 6) 20 μL of the activators thrombin receptor activating peptide (TRAP; 25 μM), ADP (5 or 20 μM) or thrombin (2 U/ml) were added. 35 μL of the fibrinogen receptor binding peptide RGD or its negative control, RED, were added where indicated. • 7) The mixture was incubated for 10 min. at room temperature in the dark. • 8) Antibodys were added directly (in a volume of 7 μL each except for LIBS-FITC at 3.5 μL) and incubated for 20-30 min. at room temperature in the dark. • 9) 500-600 μL platelet staining buffer was added. Then, the mixture was spun down for 5 min. at 1800 rpm (in a tabletop centrifuge). The supernatant was discarded, 300-400 μL staining-buffer were added. FACS measurements were done immediately.
For the following studies, antibodies against the following antigens were used:
The antibodies were coupled to the following fluorescence systems, where appropriate (either directly or via secondary antibodies) and measured by fluorescence-activated cell sorting (FACS):
Platelets which co-expressed the transgene GFP were gated for this marker by studying FITC fluorescence, and the same measurements were then exclusively related to this gate.

Q: What does the source list for thrombin?
A: release of PDGF ([1]; 0.2 U thrombin (basal 214±11)): 566 ± 10 pg/mL; release of PDGF ([1]; 1 U thrombin (basal 214±11)): 664 ± 12 pg/mL; increase of PDGF release [2]: 123±7%; Release of β-thromboglobulin ([3]; 0.2 U thrombin (basal 52±19)): 219±11 U/ml; Release of β-thromboglobulin ([3]; 2 U thrombin (basal 52±19)): 250±92 U/ml; increase in βTG release [4]: four-fold; Release of β-thromboglobulin [5]: 115±10 U/ml; release of PDGF ([6]; 0.2 U thrombin (basal 280±95)): 590 ± 22 pg/mL; release of PDGF ([6]; 2 U thrombin (basal 280±95)): 610 pg/mL

Q: `Nc1ncnc2c1ncn2[C@@H]1O[C@H](COP(=O)(O)OP(=O)(O)O)[C@@H](O)[C@H]1O` [ADP] was tested. Which “CD 41 (FACS)” value [7] did it give?
A: 92 ± 37

Q: What about the “CD42b (FACS)” value [7] of the same compound?
A: 58 ± 15

Q: And the “CD 61 (FACS)” value [7]?
A: 16 ± 6

Q: What about the “CD62P (FACS)” value [7] of the same compound?
A: 75 ± 18

Q: And the “PAC-1 (FACS)” value [7]?
A: 90 ± 26

Q: And the “CD 41 (FACS)” value [8]?
A: 258 ± 24

Q: And the “CD42b (FACS)” value [8]?
A: 46 ± 25

Q: What about the “CD 61 (FACS)” value [8] of the same compound?
A: 76 ± 9.5

Q: What about the “CD62P (FACS)” value [8] of the same compound?
A: 121 ± 61

Q: What about the “CD 41 (FACS)” value [9] of the same compound?
A: 216 ± 18

Q: What about the “CD42b (FACS)” value [9] of the same compound?
A: 95 ± 63

Q: What about the “CD 61 (FACS)” value [9] of the same compound?
A: 333 ± 78

Q: What about the “CD62P (FACS)” value [9] of the same compound?
A: 314 ± 153

Q: And the “PAC-1 (FACS)” value [9]?
A: 198 ± 10

Q: For “thrombin receptor activating peptide [TRAP]”, which “CD 41 (FACS)” value [7] is on record?
A: 99 ± 25

Q: And the “CD42b (FACS)” value [7]?
A: 40 ± 2

Q: And the “CD 61 (FACS)” value [7]?
A: 19 ± 4.8

Q: And the “CD62P (FACS)” value [7]?
A: 162 ± 50

Q: What about the “PAC-1 (FACS)” value [7] of the same compound?
A: 122 ± 34

Q: What about the “CD 41 (FACS)” value [8] of the same compound?
A: 248 ± 23

Q: And the “CD42b (FACS)” value [8]?
A: 75 ± 41

Q: And the “CD 61 (FACS)” value [8]?
A: 75 ± 14

Q: And the “CD62P (FACS)” value [8]?
A: 138 ± 69

Q: What about the “CD 41 (FACS)” value [9] of the same compound?
A: 213 ± 34

Q: And the “CD42b (FACS)” value [9]?
A: 81 ± 29

Q: And the “CD 61 (FACS)” value [9]?
A: 325 ± 73

Q: And the “CD62P (FACS)” value [9]?
A: 299 ± 146

Q: What about the “PAC-1 (FACS)” value [9] of the same compound?
A: 178 ± 41
